From PMC11648822, “Lactam Truncation Yields a Dihydroquinazolinone Scaffold with Potent Antimalarial Activity that Targets PfATP4” (Chemmedchem, 2024)
“And” between values parts separate entries of the source, which are not always exact repeats. Equal values may be shown once.

Tested on: P. berghei ANKA
Assay: P. berghei 4-day mouse model
Format: in vivo
Details: 20 mg/kg p.o. q.d. at 2, 24, 48, 72 h
Method: In this model, mice are infected with P. berghei ANKA asexual blood stage parasites. Compounds are then administered by oral gavage at 20 mg/kg 2, 24, 48, and 72 hours after the parasite infection.
Each day, a fresh aliquot of the compound stock was diluted 1/10 in water for administration to mice. 8 week old female mice (Ozgene) on day 0 were infected with 2×10^7 P. berghei ANKA‐infected erythrocytes. […] 2 mice were also dosed with artesunate using the same regime at 30 mg/kg. The parasitemia of mice was assessed by visualizing Giemsa‐stained thin blood smears by microscopy and a minimum of 1000 RBCs were counted. To calculate the percent antimalarial activity the following formula was used: 100 ‐ (mean parasitemia treated day 4 post‐infection/mean parasitemia vehicle control day 4 post‐infection)×100. Mice were culled the day following the last oral gavage.
Briefly, ‘donor’ female Swiss mice were infected intraperitoneally (IP) with blood stage P. berghei parasites constitutively expressing GFP (P. berghei ANKA GFPcon 259cl2).[36] Three days later, groups of 3 ‘acceptor’ Swiss mice were infected intravenously with 1 x 10^7 parasitised red blood cells from the ‘donor mice’. […] Control mice were left untreated. Peripheral blood samples were taken 24 h after administration of the last dose, and parasitemia was measured by flow cytometry (proportion of GFP‐positive cells in 100,000 recorded events using Attune Nxt, ThermoFisher) and microscopic analysis of Giemsa‐stained blood smears. Parasitemia values were averages of 3 mice per group.

## CN1C(=O)c2ccc(-n3cccn3)cc2NC1(C)C(=O)Nc1cncc(Cl)c1 (centres unmarked) [Compound 33, N‐(5‐Chloropyridin‐3‐yl)‐2,3‐dimethyl‐4‐oxo‐7‐(1H‐pyrazol‐1‐yl)‐1,2,3,4‐tetrahydroquinazoline‐2‐carboxamide]
Day 4
  % parasitemia: 12.8%
Day 4, versus control
  % reduction in parasitemia: 46% and 46.7%
